pEC50, pIC50: −log10 of the molar value.
Experiments:
[1] = target: T1, Vitamin D3 receptor (Homo sapiens) (UniProt P11473)
T1 sequence (whole entry): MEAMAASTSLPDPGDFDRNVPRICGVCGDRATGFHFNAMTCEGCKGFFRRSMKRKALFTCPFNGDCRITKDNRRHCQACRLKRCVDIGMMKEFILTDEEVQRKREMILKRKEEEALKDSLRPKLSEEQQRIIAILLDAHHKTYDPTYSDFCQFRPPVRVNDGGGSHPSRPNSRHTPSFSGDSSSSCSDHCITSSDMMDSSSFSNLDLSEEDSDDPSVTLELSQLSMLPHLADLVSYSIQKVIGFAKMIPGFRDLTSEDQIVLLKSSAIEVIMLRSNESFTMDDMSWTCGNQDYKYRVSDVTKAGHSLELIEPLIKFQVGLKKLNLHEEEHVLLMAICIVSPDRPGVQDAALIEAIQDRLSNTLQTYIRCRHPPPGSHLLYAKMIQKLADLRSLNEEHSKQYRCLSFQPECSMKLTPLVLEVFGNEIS
Description: Stabilization of human [35S]VDR against trypsin digestion by protease assay

[2] = target: T1, Vitamin D3 receptor (Homo sapiens); details: CV-1
Description: Activity on human VDR-mediated transcription of osteocalcin VDRE fused to thymidine kinase promoter/growth hormone reporter gene in CV1 cells

[3] = Antiproliferative activity against murine keratinocytes; type: functional; details: Mus musculus, Keratinocyte; read-out: ED50 (the source's name)
[4] = target: T2, Vitamin D3 receptor (Homo sapiens, UniProt P11473); experiment: Displacement of [3H]1,25-dihydroxyvitamin D3 from human VDR by HAP assay
T2 sequence (P11473 whole entry): T1 sequence (whole entry)

[5] = species on record: Rattus norvegicus; experiment: Calcemic activity in Sprague-Dawley rat measured as urinary calcium excretion relative to calcitriol; type: functional, Urine

Compound C=C1/C(=C\C=C2/CCC[C@]3(C)[C@@H]([C@H](C)CCCC(C)(C)O)CC[C@@H]23)C[C@@H](O)C[C@@H]1C(F)F has an ED50 [1] of 500 nM, an ED50 [2] of 390 nM and a pEC50 [3] of 6.82. The pIC50 [4] was 7.52.
For C=C1/C(=C\C=C2/CCC[C@]3(C)C([C@H](C)CCC(F)(F)C(O)(CC)CC)=CC[C@@H]23)C[C@@H](O)C[C@@H]1C(F)F, the ED50 [1] was 4 nM, the ED50 [2] was 0.6 nM and the pEC50 [3] was 8.70. The pIC50 [4] was 7.30 and the Activity [5] was 16%.
For C=C1/C(=C\C=C2/CCC[C@]3(C)[C@@H]([C@@H](C)OCCCC(O)(CC)CC)CC[C@@H]23)C[C@@H](O)C[C@@H]1C(F)F, the ED50 [1] was 100 nM, the ED50 [2] was 3 nM and the pEC50 [3] was 8.15. The pIC50 [4] was 7.71 and the Activity [5] was 5%.
